The text below walks through data of patent publication US20210179578A1, “OX1 ANTAGONISTS” (Heptares Therapeutics Limited, priority 2017, published 2021).

One assay addresses T1, human OX1 receptor (Homo sapiens, UniProt O43613).
T1 sequence (O43613 1-425): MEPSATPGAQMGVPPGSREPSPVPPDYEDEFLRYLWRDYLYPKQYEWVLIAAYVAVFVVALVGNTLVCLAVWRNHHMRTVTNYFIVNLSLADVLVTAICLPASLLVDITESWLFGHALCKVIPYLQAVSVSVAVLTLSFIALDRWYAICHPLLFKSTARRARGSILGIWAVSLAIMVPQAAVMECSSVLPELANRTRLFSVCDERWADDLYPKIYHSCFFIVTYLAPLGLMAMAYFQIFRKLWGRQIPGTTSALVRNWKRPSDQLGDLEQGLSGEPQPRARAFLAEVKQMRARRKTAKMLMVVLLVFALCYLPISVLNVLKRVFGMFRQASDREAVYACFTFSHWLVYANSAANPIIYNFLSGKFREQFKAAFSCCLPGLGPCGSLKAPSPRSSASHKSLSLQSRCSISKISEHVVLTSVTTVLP
Description: [3H]-radioligand binding assay, OX1. Details: made in house; host or cells: SF21 insect cells (baculovirus; P0 virus made in SF9). To be noted: [3H]-radioligand binding, human OX1 membranes; read-out: pKi average OX1 (converted). An excerpt: (§1) Cloning, Baculovirus generation, large-scale infection of SF21 cells and membrane preparation. Human OX1 or OX2 receptor were cloned into Invitrogen's (ThermoFisher Scientific, UK) Bac-to-Bac Baculovirus Expression System. P0 baculovirus was generated by transfecting SF9 cells with bacmid DNA using Cellfectin® II transfection reagent (ThermoFisher Scientific, UK, Catalog number 10362-100). Following P0 generation P1 virus was then generated ready for large scale infection and membrane preparation. SF21 cells were grown in expression medium ESF921 (Expression Systems, USA, catalog number 96-001-01) supplemented with 10% heat-inactivated FBS and 1% Pen/Strep and were infected at a cell density of 2.5×10^6 cells/mL and a multiplicity of infection of 1.0 for both human OX1R and OX2R. Incubation was carried out at over 48 h in a shaking incubator set at 27° C. The cell culture was then centrifuged at 2,500 rcf for 10 min at 4° C. The pellets were resuspended in cold PBS supplemented with Roche's Complete EDTA-free protease inhibitor cocktail tablets (Roche Applied Sciences, catalog number 05056489001), 1 mM PMSF and 1 mM EDTA. The resuspended cell paste was then centrifuged at 3,273 rcf for 12 min at 4° C. The supernatant was discarded and the pellet frozen at −80° C. The cell pellet from a 4 L culture was resuspended in buffer containing 50 mM HEPES pH 7.5, 150 mM NaCl, 8 Roche EDTA-Free protease inhibitor cocktail tablets and 1 mM PMSF. The suspension was left stirring at rt for 1 h and then homogenised for 90 s at 9,500 rpm using a VDI 25 (VWR, USA) homogeniser. The cells were then lysed using a Microfluidiser processor M-110L Pneumatic (Microfluidics, USA) at 60 PSI and membranes collected by ultracentrifugation at 204.7 k×g for 1 h. The supernatant was discarded and the pellet was resuspended and homogenised in 90 s at 9,500 rpm in 50 mL (25 mL for each 2 L culture) of buffer containing 50 mM Hepes pH 7.5, 150 mM NaCl, 3 Roche EDTA-free protease inhibitor cocktail tablets and 1 mM PMSF. The resulting membranes were then stored at −80° C.
(§2) [^3H]-radioligand binding assay. After thawing, membrane homogenates were resuspended in the binding buffer (8.5 mM HEPES, pH 7.4, 1.3 mM CaCl2, 1.2 mM MgSO4, 118 mM NaCl, 4.7 mM KCl, 4 mM NaHCO3, 1.2 mM KH2PO4, 11 mM glucose) to a final assay concentration of 6.4 μg (OX1) or 1.4 μg (OX2) protein per well. Saturation isotherms were determined by the addition of various concentrations (0-30 nM) of [^3H]-4-(2,6-difluoro-4-methoxybenzyl)-2-(5,6-dimethoxypyridin-3-yl)-2H-1,2,4-benzothiadiazin-3(4H)-one 1,1-dioxide (Christopher et al, MedChemComm., 2015, 6, 947-955) in a total reaction volume of 250 μL for 90 min at rt. At the end of the incubation, membranes were filtered onto a 96-well GF/B filter pre-incubated with 0.5% polyethylenimine, with a Tomtec cell harvester and washed 5 times with 0.5 mL distilled water. Non-specific binding (NSB) was measured in the presence of 3.33 μM [4-(5-chloro-1,3-benzoxazol-2-yl)-7-methyl-1,4-diazepan-1-yl][5-methyl-2-(2H-1,2,3-triazol-2-yl)phenyl]methanone (Wertz et al, Angew. Chem. Int. Ed., 2011, 50, 11511-11515). Radioactivity on the filter was counted (1 min) on a Microbeta radiometric plate counter (Perkin Elmer) after addition of 50 μL of scintillation fluid (LabLogic: Part #SG-BXX-14). […] IC50 values were derived from the inhibition curve and the equilibrium dissociation constant (Ki) values were calculated using the Cheng-Prusoff equation.

For the next assay, the target named is T2, human OX2 receptor (Homo sapiens, UniProt O43614).
T2 sequence (O43614 1-444): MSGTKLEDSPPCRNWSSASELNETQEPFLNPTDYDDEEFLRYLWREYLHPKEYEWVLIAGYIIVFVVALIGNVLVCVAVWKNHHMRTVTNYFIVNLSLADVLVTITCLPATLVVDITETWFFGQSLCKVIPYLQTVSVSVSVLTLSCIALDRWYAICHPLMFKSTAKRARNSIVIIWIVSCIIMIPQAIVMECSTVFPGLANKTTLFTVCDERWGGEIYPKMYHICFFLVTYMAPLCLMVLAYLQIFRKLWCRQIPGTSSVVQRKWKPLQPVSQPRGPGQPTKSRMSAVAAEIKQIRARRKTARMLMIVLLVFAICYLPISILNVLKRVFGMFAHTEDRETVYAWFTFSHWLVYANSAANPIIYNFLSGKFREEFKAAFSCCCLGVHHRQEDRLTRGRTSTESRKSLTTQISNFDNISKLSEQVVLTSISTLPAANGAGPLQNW
Description: [3H]-radioligand binding assay, OX2. Details: made in house; host or cells: SF21 insect cells (baculovirus; P0 virus made in SF9). Conditions: [3H]-radioligand binding, human OX2 membranes; read-out: pKi average OX2 (converted).
Source text: as §1, §2

Bounds are passed on as bounds.

For the molecule `COc1ncc(C2CCc3c(F)cccc3N(Cc3c(F)cc(Br)cc3F)C2=O)cc1S(C)(=O)=O` (racemic) [Example 19, 1-(4-bromo-2,6-difluorobenzyl)-6-fluoro-3-[6-methoxy-5-(methylsulfonyl)pyridin-3-yl]-1,3,4,5-tetrahydro-2H-1-benzazepin-2-one], the Ki at human OX1 receptor is 3.98 nM; at human OX2 receptor it was greater than 251 nM.
The matching figures for `COc1ncc(C2CCc3c(F)cccc3N(Cc3c(F)cc(Br)cc3F)C2=O)cc1C(C)(F)F` (single isomer, unassigned) [Example 12, 1-(4-bromo-2,6-difluorobenzyl)-3-[5-(1,1-difluoroethyl)-6-methoxypyridin-3-yl]-6-fluoro-1,3,4,5-tetrahydro-2H-1-benzazepin-2-one]: 0.398 nM and greater than 398 nM.
On to `COc1ncc(C2CCc3c(F)cccc3N(Cc3cc(C#N)ccc3F)C2=O)cc1C(C)(F)F` (single isomer, unassigned) [Example 13, 3-({3-[5-(1,1-difluoroethyl)-6-methoxypyridin-3-yl]-6-fluoro-2-oxo-2,3,4,5-tetrahydro-1H-1-benzazepin-1-yl}methyl)-4-fluorobenzonitrile], for which the figures for the Ki on human OX1 receptor and at human OX2 receptor were 0.794 nM and greater than 158 nM, respectively.
Turning to `COc1ncc(C2CCc3c(F)cccc3N(Cc3c(F)cc(Br)cc3F)C2=O)cc1S(C)(=O)=O` (single isomer, unassigned) [Example 21, 1-(4-bromo-2,6-difluorobenzyl)-6-fluoro-3-[6-methoxy-5-(methylsulfonyl)pyridin-3-yl]-1,3,4,5-tetrahydro-2H-1-benzazepin-2-one], the Ki on human OX1 receptor is 0.316 nM.
With `COc1ncc(C2CCc3c(F)cccc3N(Cc3c(F)cc(Cl)cc3F)C2=O)cc1S(C)(=O)=O` (single isomer, unassigned) [Example 22, 1-(4-chloro-2,6-difluorobenzyl)-6-fluoro-3-[6-methoxy-5-(methylsulfonyl)pyridin-3-yl]-1,3,4,5-tetrahydro-2H-1-benzazepin-2-one], the figures for the Ki at human OX1 receptor and on human OX2 receptor were 0.501 nM and greater than 631 nM, respectively.
As to `[2H]C([2H])([2H])Oc1ncc(N2CCc3c(F)cccc3N(Cc3c(F)cc(Br)cc3F)C2=O)cc1C(C)(F)F` [Example 2, 1-(4-bromo-2,6-difluorobenzyl)-3-{5-(1,1-difluoroethyl)-6-[(^2H3)methyloxy]pyridin-3-yl}-6-fluoro-1,3,4,5-tetrahydro-2H-1,3-benzodiazepin-2-one], at human OX1 receptor, the Ki is 0.631 nM.
On the same count and under the same terms, in the case of `[2H]C([2H])([2H])OCc1cc(F)c(CN2C(=O)N(c3cnc(OC)c(C(C)(F)F)c3)CCc3c(F)cccc32)c(F)c1` [Example 5, 3-[5-(1,1-difluoroethyl)-6-methoxypyridin-3-yl]-1-(2,6-difluoro-4-{[(^2H3)methyloxy]methyl}benzyl)-6-fluoro-1,3,4,5-tetrahydro-2H-1,3-benzodiazepin-2-one] it was 0.316 nM; in that of `COCc1cc(F)c(CN2C(=O)N(c3cnc(OC)c(C(C)(F)F)c3)CCc3c(F)cccc32)c(F)c1` [Example 7, 3-[5-(1,1-difluoroethyl)-6-methoxypyridin-3-yl]-1-[2,6-difluoro-4-(methoxymethyl)benzyl]-6-fluoro-1,3,4,5-tetrahydro-2H-1,3-benzodiazepin-2-one], 1 nM; in that of `COc1cc(F)c(CN2C(=O)N(c3cnc(OC)c(C(C)(F)F)c3)CCc3c(F)cccc32)c(F)c1` [Example 8, 3-[5-(1,1-difluoroethyl)-6-methoxypyridin-3-yl]-1-(2,6-difluoro-4-methoxybenzyl)-6-fluoro-1,3,4,5-tetrahydro-2H-1,3-benzodiazepin-2-one], 0.398 nM.
The same measure, in the same setting: the figure for `COc1ncc(N2CCc3c(F)cccc3N(Cc3c(F)cc(Cl)cc3F)C2=O)cc1C(C)(F)F` [Example 9, 1-(4-chloro-2,6-difluorobenzyl)-3-[5-(1,1-difluoroethyl)-6-methoxypyridin-3-yl]-6-fluoro-1,3,4,5-tetrahydro-2H-1,3-benzodiazepin-2-one] is 0.794 nM; for `COc1cc(F)c(CN2C(=O)N(c3cnc(OC)c(S(C)(=O)=O)c3)CCc3c(F)cccc32)c(F)c1` [Example 16, 1-(2,6-difluoro-4-methoxybenzyl)-6-fluoro-3-[6-methoxy-5-(methylsulfonyl)pyridin-3-yl]-1,3,4,5-tetrahydro-2H-1,3-benzodiazepin-2-one] it is 0.794 nM; for `COc1ncc(N2CCc3c(F)cccc3N(Cc3c(C)cc(Br)cc3F)C2=O)cc1S(C)(=O)=O` [Example 17, 1-(4-bromo-2-fluoro-6-methylbenzyl)-6-fluoro-3-[6-methoxy-5-(methylsulfonyl)pyridin-3-yl]-1,3,4,5-tetrahydro-2H-1,3-benzodiazepin-2-one] it is 0.794 nM.
Still for that read-out and setting: the figure for `COc1ncc(N2CCc3c(F)cccc3N(Cc3c(C)cc(F)cc3F)C2=O)cc1S(C)(=O)=O` [Example 18, 1-(2,4-difluoro-6-methylbenzyl)-6-fluoro-3-[6-methoxy-5-(methylsulfonyl)pyridin-3-yl]-1,3,4,5-tetrahydro-2H-1,3-benzodiazepin-2-one] is 1.26 nM; for `Cc1cc(C)c(S(C)(=O)=O)cc1N1CCc2ccccc2N(Cc2c(F)cc(OC(C)C)cc2F)C1=O` [Example 30, 1-[2,6-difluoro-4-(propan-2-yloxy)benzyl]-3-[2,4-dimethyl-5-(methylsulfonyl)phenyl]-1,3,4,5-tetrahydro-2H-1,3-benzodiazepin-2-one] it is 1.26 nM; for `Cc1ncc(N2CCc3c(F)cccc3N(Cc3c(F)cc(Br)cc3F)C2=O)cc1OC(F)F` [Example 37, 1-(4-bromo-2,6-difluorobenzyl)-3-[5-(difluoromethoxy)-6-methylpyridin-3-yl]-6-fluoro-1,3,4,5-tetrahydro-2H-1,3-benzodiazepin-2-one] it is 1.58 nM.
